The results in this text go back to EP0623024B1, “PHARMACEUTICAL BACTERIOCIN COMPOSITIONS AND THEIR USE FOR TREATING GASTROINTESTINAL DISORDERS” (APPLIED MICROBIOLOGY, INC., priority 1992, dated 1993).

The test system of series [1] is Campylobacter jejuni ATCC29428. The series is described as follows: germicidal suspension assay. Particulars: nisin 0 or 100 µg/ml, 37°C.
The subject of series [2] is Helicobacter pylori. The series can be described thus: germicidal suspension assay. The conditions noted are these: nisin 0 or 100 µg/ml, 37°C.
The test system of series [3] is Campylobacter jejuni ATCC29428. The series can be described thus: germicidal suspension assay. The format is cell-based. Particulars: for % survival at 5 min: pH 5.0, nisin 100 µg/ml, 37°C.
The test system of series [4] is Helicobacter pylori. The series is described as follows: germicidal suspension assay. The format is cell-based. Particulars: 37°C.
The next series relates to Escherichia coli. The series is described as follows: germicidal suspension assay of chelator-enhanced nisin in acid vehicles. The format is cell-based. The conditions noted are these: for % survival at 1 min: 37°C. Here is the method: The rapid activities of various chelator-enhanced nisin formulations were evaluated in acid vehicles in a germicidal suspension assay.
E. coli cells from an overnight Trypticase soy nutrient agar (TSA) were resuspended to a density measured as an absorbance of 1.0 at 600 nm in sterile ddH2O. The reaction of the cells with each of the bactericidal test formulations analyzed was started by addition of 30 µl of cells to 970 µl of test formulation. The reaction mixture was incubated at 37°C for at least 1 minute and then centrifuged in a microfuge for 1 minute. The cell pellet was washed by resuspension in 1 ml of neutralization buffer. (The neutralization buffer: 50 mM Tris-HCl, pH 7.0, 5 mM MgSO4, 20 mM CaC12, 0.1 M NaCl and 0.1% gelatin was prepared by first making Tris buffer and adjusting the pH. The salts and gelatin were then added and the solution stirred with heat until the solution was clear. The solution was then autoclaved for 20 min. The neutralization buffer was used without dilution.) The cells were centrifuged in a microfuge for 1 minute and resuspended in 1 ml of neutralization buffer. The viable count was determined by spreading 100 µl of bacterial suspension and serial dilutions thereof in neutralization buffer on nutrient agar and scoring surviving colonies after 24 h at 37°C. Percent survival relative to untreated controls was calculated from the scored values.
In Table 1 and subsequent Tables 2, 4 and 8-13 values preceded by "<" represent the percent survival figures, based on the initial concentration of viable bacteria (expressed as colony forming units (cfu) /ml) in the assayed bacterial suspension and the aliquot volume of said suspension taken for assay, corresponding to the detection of no surviving colonies.

For a further series, the system named is E. coli strain ATCC8739. The series can be described thus: nisin-citrate agar assay (growth inhibition on nutrient agar). The format is cell-based. An excerpt: However, nisin in the presence of citrate is active against gram negative bacteria. […] This nisin-citrate agar assay has much more general applicability. The assay provides a method for screening potential agents other than citrate in combination with nisin for their potential properties as enhancers of nisin's inherent bactericidal activity. Examples of other organic acids in combination with nisin would include acetate, propionate, lactate, succinate, fumarate, malonate, adipate, sorbate, phosphate and ascorbate.
The nisin-citrate agar assay is performed as follows. E. coli is resuspended to an optical density of 1.0 at A600. A 100 µl sample of the bacterial suspension is spread uniformly on Trypticase Soy nutrient agar (TSA) supplemented with various concentrations of citrate (eg. 0.1%, 0.3%, 1.0%, 3.0%) and incubated for 1 hour at 37°C. A nisin stock solution and serial dilutions thereof in 0.1% bovine serum albumin (BSA), are prepared and 5 µl are taken from each and deposited onto the growing bacterial lawn. The TSA plates are then incubated for 24 hours at 37°C. After 24 hours at 37°C, E. coli grown on TSA supplemented with citrate form a confluent lawn. […] The effectiveness of nisin against the gram negative bacteria can be assessed from determining the minimum amount of nisin required to produce a clear zone of growth inhibition. As the concentration of citrate in the nutrient agar is increased, less nisin is required to inhibit the growth of E. coli, as is illustrated by the data shown in Table 6.

Values joined by “and” are separate entries in the source; they are usually repeats but may differ in a detail not shown here. Equal entries are not always repeated. Marks after values point to notes of the source that are not given here. Ends that are not written are not given here. Where only a bound is given, the exact number is not on record here.

For the compound `O=C(O)CC(O)(CC(=O)O)C(=O)O` [Citrate], the “% survival at 5 min” value in series [1] (0.3 % w/v citrate pH 5.0) was <6.4x10^-3%; in series [1] (1.0 % w/v citrate pH 5.0), <6.4x10^-3%; in the series on Helicobacter pylori [2] (strain ATCC 43504, 0.1% citrate adjusted to pH 5.0), 68.5^d %; in the series with Helicobacter pylori [2] (strain ATCC 43504, 0.3% citrate adjusted to pH 5.0), 100^e %; in the series with Helicobacter pylori [2] (strain ATCC 43579, 0.1% citrate adjusted to pH 2.5) it was <5.0x10^-4%; with Helicobacter pylori [2] (strain ATCC 43579, 0.1% citrate adjusted to pH 3.0), 1.1x10^-3%. Also, the “% survival at 5 min” value in the series with Helicobacter pylori [2] (strain ATCC 43579, 0.1% citrate adjusted to pH 5.0) was 97.2^b %.

Consider “nisin (ITSISLCTPGCKTGALMGCNMKTATCHCSIHVSK; also: lantibiotic nisin A: thioether rings and dehydrated residues not placed; UniProt P13068 24-57, looked up) [lanthionine-containing bacteriocin]”, for which the “% survival at 5 min” value is <5.0x10^-4% in series [3] (EDTA 0); <6.4x10^-3% in series [3] (citrate 0); 7.03^e % with Helicobacter pylori [4] (strain ATCC 43504, EDTA 0, nisin 100 µg/ml, pH 5.0, incubated in presence of 20 mM acetate); 0.69^d % and 4.86^e % in the series with Helicobacter pylori [4] (strain ATCC 43504, citrate 0, nisin 100 µg/ml, 20 mM acetate, pH 5.0, two experiments (initial count 2.7 x 10^5 and 3.7 x 10^4 cfu/ml)); 0.043% in the series with Helicobacter pylori [4] (strain ATCC 43504, pH 5.0, citrate 0, nisin 100 µg/ml); 2.08% in the series on Helicobacter pylori [4] (strain ATCC 43504, pH 7.0, citrate 0, nisin 100 µg/ml). Also, the “% survival at 5 min” value is 5.88% in the series with Helicobacter pylori [4] (strain ATCC 43526, pH 7.0, EDTA 0, nisin 100 µg/ml); 0.30^c % in the series with Helicobacter pylori [4] (strain ATCC 43579, citrate 0, nisin 100 µg/ml, 20 mM acetate, pH 5.0, average of 5 experiments); 8.6x10^-3 ^e % with Helicobacter pylori [4] (strain ATCC 43579, citrate 0, nisin 100 µg/ml, 20 mM acetate, pH 5.0, single experiment); 1.41% in the series on Helicobacter pylori [4] (strain ATCC 43579, nisin 10 µg/ml, without or with 0.1% citrate pH 5.0); 0.39% in the series on Helicobacter pylori [4] (strain ATCC 43579, nisin 30 µg/ml, without or with 0.1% citrate pH 5.0); 0.085% in the series on Helicobacter pylori [4] (strain ATCC 43579, nisin 100 µg/ml, without or with 0.1% citrate pH 5.0). Further, the “% survival at 5 min” value in the series on Helicobacter pylori [4] (strain ATCC 43579, nisin 300 µg/ml, without or with 0.1% citrate pH 5.0) was 0.0056%; with Helicobacter pylori [4] (strain ATCC 43579, pH 5.0, EDTA 0, nisin 100 µg/ml), 4.7%; in the series with Helicobacter pylori [4] (strain ATCC 43579, pH 5.0, citrate 0, nisin 100 µg/ml), 9.62%; in the series with Helicobacter pylori [4] (strain ATCC 43579, pH 7.0, citrate 0, nisin 100 µg/ml), 0.78%. Moreover, the “effectiveness towards C. jejuni” value in series [3] (nisin by itself) was “extremely effective”. Moreover, the “% survival at 1 min” value with Escherichia coli (0.1 % w/v acetate pH 3.5, nisin 100 µg/ml and/or EDTA 1.0 mM, or acetate alone) was found to be 9.6%; in the series on Escherichia coli (0.1 % w/v lactate pH 3.5, nisin 100 µg/ml and/or EDTA 1.0 mM, or lactate alone), 4.4%; with Escherichia coli (0.1 % w/v succinate pH 3.5, nisin 100 µg/ml and/or EDTA 1.0 mM, or succinate alone), 18.3%; with Escherichia coli (0.3 % w/v acetate pH 3.5, nisin 100 µg/ml and/or EDTA 1.0 mM, or acetate alone), 70%; in the series with Escherichia coli (0.3 % w/v lactate pH 3.5, nisin 100 µg/ml and/or EDTA 1.0 mM, or lactate alone), 0.24%; in the series with Escherichia coli (0.3 % w/v succinate pH 3.5, nisin 100 µg/ml and/or EDTA 1.0 mM, or succinate alone), 66.6%. Moreover, the “% survival at 1 min” value in the series on Escherichia coli (1.0 % w/v acetate pH 3.5, nisin 100 µg/ml and/or EDTA 1.0 mM, or acetate alone) turned out to be 100%; in the series with Escherichia coli (1.0 % w/v lactate pH 3.5, nisin 100 µg/ml and/or EDTA 1.0 mM, or lactate alone), 17.8%; in the series on Escherichia coli (1.0 % w/v succinate pH 3.5, nisin 100 µg/ml and/or EDTA 1.0 mM, or succinate alone), 83.4%; in the series with Escherichia coli (3.0 % w/v acetate pH 3.5, nisin 100 µg/ml and/or EDTA 1.0 mM, or acetate alone), 100%; in the series on Escherichia coli (3.0 % w/v lactate pH 3.5, nisin 100 µg/ml and/or EDTA 1.0 mM, or lactate alone), 26.7%; with Escherichia coli (3.0 % w/v succinate pH 3.5, nisin 100 µg/ml and/or EDTA 1.0 mM, or succinate alone), 28.4%. Besides, the “% survival at 1 min” value in the series on Escherichia coli (pH 2.0, 20 mM Na acetate buffer, nisin 100 µg/ml and/or EDTA 1.0 mM) is reported as 0.28%; with Escherichia coli (pH 2.5, 20 mM Na acetate buffer, nisin 100 µg/ml and/or EDTA 1.0 mM), 3.37%; in the series with Escherichia coli (pH 3.0, 20 mM Na acetate buffer, nisin 100 µg/ml and/or EDTA 1.0 mM) it was 4.43%; with Escherichia coli (pH 3.5, 20 mM Na acetate buffer, nisin 100 µg/ml and/or EDTA 1.0 mM) it was 100%; with Escherichia coli (pH 4.0, 20 mM Na acetate buffer, nisin 100 µg/ml and/or EDTA 1.0 mM) it was 100%. Also, in the series with Escherichia coli (each agent by itself), the “survival of E. coli on exposure to the agent by itself” value is on record as “unaffected”. The “Nisin NIC (nominal inhibitory concentration of nisin minimally required to prevent growth)” value in the series with E. coli strain ATCC8739 (Trypticase Soy Agar supplemented with 0.1% citrate) is 370 µg/mL; with E. coli strain ATCC8739 (Trypticase Soy Agar supplemented with 0.3% citrate), 123 µg/mL; in the series with E. coli strain ATCC8739 (Trypticase Soy Agar supplemented with 1.0% citrate) it was 13.7 µg/mL; in the series with E. coli strain ATCC8739 (Trypticase Soy Agar supplemented with 3.0% citrate), 0.06 µg/mL; with E. coli strain ATCC8739 (Trypticase Soy Agar with 0% citrate) it was 3,333 µg/ml.
